Counter-ions that a name gives are not always drawn.
biological target: GST tagged IRAK4 (Homo sapiens (Human), UniProt Q9NWZ3); assay: IRAK4 Kinase Assay (IMAP fluorescence polarization); type: biochemical; conditions: 0.5 nM GST tagged IRAK4, 100 μM ATP, 30 minutes at 25° C.
In short: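 Reactions contained 0.5 nM GST-IRAK4, 100 nM fluorescent peptide substrate and 100 μM ATP in 10 mM Tris-HCl pH 7.2 with 1 mM MgCl2, and were started with ATP. After 30 minutes at 25° C they were stopped with IMAP reagent. Substrate phosphorylation was read as the change in fluorescence polarization.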

Sequence of GST tagged IRAK4 (Q9NWZ3 whole entry): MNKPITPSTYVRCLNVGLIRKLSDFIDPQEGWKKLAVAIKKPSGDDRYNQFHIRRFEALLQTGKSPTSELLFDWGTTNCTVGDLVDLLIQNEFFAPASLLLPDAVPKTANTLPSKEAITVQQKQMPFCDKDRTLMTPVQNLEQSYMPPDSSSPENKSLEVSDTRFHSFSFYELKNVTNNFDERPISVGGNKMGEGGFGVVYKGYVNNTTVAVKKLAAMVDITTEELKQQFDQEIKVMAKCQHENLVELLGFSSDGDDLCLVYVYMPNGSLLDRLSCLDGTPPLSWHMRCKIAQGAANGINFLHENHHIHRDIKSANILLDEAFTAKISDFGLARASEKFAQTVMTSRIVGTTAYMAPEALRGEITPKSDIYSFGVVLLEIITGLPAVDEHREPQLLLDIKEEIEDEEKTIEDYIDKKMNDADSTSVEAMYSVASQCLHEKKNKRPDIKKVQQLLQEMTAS

Row | SMILES | IC50
1 | Cn1cc(NC(=O)c2ccc3cnc(N[C@@H]4CCCNC4)nn23)c(C(F)F)n1 [Example 16, N-[3-(difluoromethyl)-1-methyl-1H-pyrazol-4-yl]-2-[(3R)-piperidin-3-ylamino]pyrrolo[2,1-f][1,2,4]triazine-7-carboxamide trifluoroacetate] | 1 nM
2 | Cn1cc(NC(=O)c2ccc3cnc(N[C@@H]4CCCC[C@@H]4O)nn23)c(C(F)F)n1 [Example 17, N-[3-(difluoromethyl)-1-methyl-1H-pyrazol-4-yl]-2-{[(1R,2S)-2-hydroxycyclohexyl]amino}-pyrrolo[2,1-f][1,2,4]triazine-7-carboxamide trifluoroacetate] | 4 nM
3 | Cn1cc(NC(=O)c2ccc3cnc(N4CCC[C@@H](N)C4)nn23)c(C(F)F)n1 [Example 18, 2-[(3R)-3-aminopiperidin-1-yl]-N-[3-(difluoromethyl)-1-methyl-1H-pyrazol-4-yl]pyrrolo[2,1-f][1,2,4]triazine-7-carboxamide trifluoroacetate] | 0.5 nM
4 | Cn1cc(NC(=O)c2ccc3cnc(NC4CCCCNC4)nn23)c(C(F)F)n1 (stereo not drawn) [Example 19, 2-(azepan-3-ylamino)-N-[3-(difluoromethyl)-1-methyl-1H-pyrazol-4-yl]pyrrolo[2,1-f][1,2,4]triazine-7-carboxamide trifluoroacetate] | 1 nM
5 | O=C(Nc1cscc1Br)c1ccc2cnc(N3CC4CCC3CN4)nn12 (stereo not drawn) [Example 24, N-(4-bromothiophen-3-yl)-2-(2,5-diazabicyclo[2.2.2]oct-2-yl)pyrrolo[2,1-f][1,2,4]triazine-7-carboxamide trifluoroacetate] | 680 nM
6 | Cn1cc(NC(=O)c2ccc3cnc(N[C@@H]4CCCC[C@@H]4N)nn23)c(Cl)n1 [Example 25, 2-{[(1R,2S)-2-aminocyclohexyl]amino}-N-(3-chloro-1-methyl-1H-pyrazol-4-yl)pyrrolo[2,1-f][1,2,4]triazine-7-carboxamide trifluoroacetate] | 1 nM
7 | N[C@H]1CCCC[C@H]1Nc1ncc2ccc(C(=O)Nc3ccccc3C(F)(F)F)n2n1 [Example 27, 2-{[(1R,2S)-2-aminocyclohexyl]amino}-N-[2-(trifluoromethyl)phenyl]-pyrrolo[2,1-f][1,2,4]triazine-7-carboxamide trifluoroacetate] | 392 nM
8 | Cn1cc(NC(=O)c2ccc3cnc(N4CC5CCC4CN5)nn23)c(C(F)F)n1 (stereo not drawn) [Example 29, 2-(2,5-diazabicyclo[2.2.2]oct-2-yl)-N-[3-(difluoromethyl)-1-methyl-1H-pyrazol-4-yl]pyrrolo[2,1-f][1,2,4]triazine-7-carboxamide trifluoroacetate] | 7 nM
9 | N[C@H]1CCCC[C@H]1Nc1ncc2ccc(C(=O)Nc3ccsc3Cl)n2n1 [Example 30, 2-{[(1R,2S)-2-aminocyclohexyl]amino}-N-(2-chlorothiophen-3-yl)pyrrolo[2,1-f][1,2,4]triazine-7-carboxamide trifluoroacetate] | 3 nM
10 | N[C@H]1CCCC[C@H]1Nc1ncc2ccc(C(=O)Nc3ccccc3Br)n2n1 [Example 32, 2-{[(1R,2S)-2-aminocyclohexyl]amino}-N-(2-bromophenyl)pyrrolo[2,1-f][1,2,4]triazine-7-carboxamide trifluoroacetate] | 11 nM
11 | Cn1cc(NC(=O)c2ccc3cnc(N[C@@H]4CCCC[C@@H]4N)nn23)c(C#N)n1 [Example 35, 2-{[(1R,2S)-2-aminocyclohexyl]amino}-N-(3-cyano-1-methyl-1H-pyrazol-4-yl)pyrrolo[2,1-f][1,2,4]triazine-7-carboxamide trifluoroacetate] | 1 nM
12 | N#Cc1cscc1NC(=O)c1ccc2cnc(N3CC4CCC3CN4)nn12 (stereo not drawn) [Example 36, N-(4-cyanothiophen-3-yl)-2-(2,5-diazabicyclo[2.2.2]oct-2-yl)pyrrolo[2,1-f][1,2,4]triazine-7-carboxamide trifluoroacetate] | 426 nM
13 | N[C@H]1CCCC[C@H]1Nc1ncc2ccc(C(=O)Nc3ccsc3Br)n2n1 [Example 38, 2-{[(1R,2S)-2-aminocyclohexyl]amino}-N-(2-bromothiophen-3-yl)pyrrolo[2,1-f][1,2,4]triazine-7-carboxamide trifluoroacetate] | 7 nM
14 | N[C@H]1CCCC[C@H]1Nc1ncc2ccc(C(=O)Nc3ccccc3Cl)n2n1 [Example 40, 2-{[(1R,2S)-2-aminocyclohexyl]amino}-N-(2-chlorophenyl)pyrrolo[2,1-f][1,2,4]triazine-7-carboxamide trifluoroacetate] | 3 nM
15 | N[C@H]1CCCC[C@H]1Nc1ncc2ccc(C(=O)Nc3cscc3C(F)F)n2n1 [Example 42, 2-{[(1R,2S)-2-aminocyclohexyl]amino}-N-[4-(difluoromethyl)thiophen-3-yl]pyrrolo[2,1-f][1,2,4]triazine-7-carboxamide trifluoroacetate] | 4 nM
16 | N#Cc1ccccc1NC(=O)c1ccc2cnc(N[C@@H]3CCCC[C@@H]3N)nn12 [Example 50, 2-{[(1R,2S)-2-aminocyclohexyl]amino}-N-(2-cyanophenyl)pyrrolo[2,1-f][1,2,4]triazine-7-carboxamide trifluoroacetate] | 11 nM
17 | N[C@H]1CCCC[C@H]1Nc1ncc2ccc(C(=O)Nc3ccccc3C(F)F)n2n1 [Example 56, 2-{[(1R,2S)-2-aminocyclohexyl]amino}-N-[2-(difluoromethyl)phenyl]-pyrrolo[2,1-f][1,2,4]triazine-7-carboxamide trifluoroacetate] | 88 nM

The remaining lines, values ahead:

Row | IC50 | SMILES
18 | 2 nM | Cn1cc(NC(=O)c2ccc3cnc(N4CCNCC5(CC5)C4)nn23)c(C(F)F)n1 [Example 20, 2-(5,8-diazaspiro[2.6]non-5-yl)-N-[3-(difluoromethyl)-1-methyl-1H-pyrazol-4-yl]pyrrolo[2,1-f][1,2,4]triazine-7-carboxamide trifluoroacetate]
19 | 1 nM | N#Cc1sccc1NC(=O)c1ccc2cnc(N[C@@H]3CCCC[C@@H]3N)nn12 [Example 21, 2-{[(1R,2S)-2-aminocyclohexyl]amino}-N-(2-cyanothiophen-3-yl)pyrrolo[2,1-f][1,2,4]triazine-7-carboxamide trifluoroacetate]
20 | 399 nM | N#Cc1sccc1NC(=O)c1ccc2cnc(N3CC4CCC3CN4)nn12 (stereo not drawn) [Example 22, N-(2-cyanothiophen-3-yl)-2-(2,5-diazabicyclo[2.2.2]oct-2-yl)pyrrolo[2,1-f][1,2,4]triazine-7-carboxamide trifluoroacetate]
21 | 1680 nM | O=C(Nc1cscc1Br)c1ccc2cnc(N3CCCNCC3)nn12 [Example 23, N-(4-bromothiophen-3-yl)-2-(1,4-diazepan-1-yl)pyrrolo[2,1-f][1,2,4]triazine-7-carboxamide trifluoroacetate]
22 | 61 nM | Cn1cc(NC(=O)c2ccc3cnc(N4CCCNCC4)nn23)c(Cl)n1 [Example 26, N-(3-chloro-1-methyl-1H-pyrazol-4-yl)-2-(1,4-diazepan-1-yl)pyrrolo[2,1-f][1,2,4]triazine-7-carboxamide trifluoroacetate]
23 | 3980 nM | O=C(Nc1ccccc1C(F)(F)F)c1ccc2cnc(N3CCCNCC3)nn12 [Example 28, 2-(1,4-diazepan-1-yl)-N-[2-(trifluoromethyl)phenyl]-pyrrolo[2,1-f][1,2,4]triazine-7-carboxamide trifluoroacetate]
24 | 866 nM | O=C(Nc1ccsc1Cl)c1ccc2cnc(N3CCCNCC3)nn12 [Example 31, N-(2-chlorothiophen-3-yl)-2-(1,4-diazepan-1-yl)pyrrolo[2,1-f][1,2,4]triazine-7-carboxamide trifluoroacetate]
25 | 5350 nM | O=C(Nc1ccccc1Br)c1ccc2cnc(N3CCCNCC3)nn12 [Example 33, N-(2-bromophenyl)-2-(1,4-diazepan-1-yl)pyrrolo[2,1-f][1,2,4]triazine-7-carboxamide trifluoroacetate]
26 | 352 nM | Cn1cc(NC(=O)c2ccc3cnc(N4CCCNCC4)nn23)c(C#N)n1 [Example 34, N-(3-cyano-1-methyl-1H-pyrazol-4-yl)-2-(1,4-diazepan-1-yl)pyrrolo[2,1-f][1,2,4]triazine-7-carboxamide trifluoroacetate]
27 | 1670 nM | O=C(Nc1ccsc1Br)c1ccc2cnc(N3CCCNCC3)nn12 [Example 37, N-(2-bromothiophen-3-yl)-2-(1,4-diazepan-1-yl)pyrrolo[2,1-f][1,2,4]triazine-7-carboxamide trifluoroacetate]
28 | 228 nM | O=C(Nc1ccccc1Cl)c1ccc2cnc(N3CCCNCC3)nn12 [Example 39, N-(2-chlorophenyl)-2-(1,4-diazepan-1-yl)pyrrolo[2,1-f][1,2,4]triazine-7-carboxamide trifluoroacetate]
29 | 88 nM | O=C(Nc1cscc1C(F)F)c1ccc2cnc(N3CCCNCC3)nn12 [Example 41, 2-(1,4-diazepan-1-yl)-N-[4-(difluoromethyl)thiophen-3-yl]pyrrolo[2,1-f][1,2,4]triazine-7-carboxamide trifluoroacetate]
30 | 1040 nM | N#Cc1sccc1NC(=O)c1ccc2cnc(N3CCCNCC3)nn12 [Example 43, N-(2-cyanothiophen-3-yl)-2-(1,4-diazepan-1-yl)pyrrolo[2,1-f][1,2,4]triazine-7-carboxamide trifluoroacetate]
31 | 157 nM | N#Cc1ccccc1NC(=O)c1ccc2cnc(N3CCC[C@@H](N)C3)nn12 [Example 51, 2-[(3R)-3-aminopiperidin-1-yl]-N-(2-cyanophenyl)pyrrolo[2,1-f][1,2,4]triazine-7-carboxamide trifluoroacetate]
32 | 26 nM | N#Cc1ccccc1NC(=O)c1ccc2cnc(N[C@@H]3CCCNC3)nn12 [Example 52, N-(2-cyanophenyl)-2-[(3R)-piperidin-3-ylamino]pyrrolo[2,1-f][1,2,4]triazine-7-carboxamide trifluoroacetate]
33 | 6560 nM | O=C(Nc1ccccc1C(F)F)c1ccc2cnc(N3CCCNCC3)nn12 [Example 57, 2-(1,4-diazepan-1-yl)-N-[2-(difluoromethyl)phenyl]-pyrrolo[2,1-f][1,2,4]triazine-7-carboxamide trifluoroacetate]
